According to US4346173A, “Process for the production of acyl-Coenzyme A oxidase” (Toyo Jozo Kabushiki Kaisha, priority 1979, dated 1982):

Experiments:
Experiment in all cases: Acyl-CoA oxidase assay (hydrogen peroxide colorimetry at 545 nm), Km value
[1] = test system: acyl-CoA oxidase of Monascus sp. M-4800; format: biochemical; conditions: substrate of the assay method: palmitoyl-CoA; 37° C.; phosphate buffer pH 7.0 or tris-HCl buffer pH 8.0
Experimental: (§1) Enzyme solution (10 μl) is added to a reaction mixture (0.5 ml) consisting of 0.2 M phosphate buffer (pH 7.0) or 0.2 M tris-HCl buffer (pH 8.0) (0.1 ml), 5 mM 4-aminoantipyrine (0.05 ml), 3 mM diethyl m-toludine (0.05 ml), peroxidase (0.5 mg/ml, 0.05 ml), 25 mM palmitoyl-CoA (0.02 ml) and distilled water (0.23 ml) and the mixture is incubated at 37° C. for 10 minutes. 4 M urea (0.5 ml) is added to stop the reaction, and 1% by weight of Triton X-100 (2 ml) is added thereto and the generated hydrogen peroxide is measured at 545 nm by colorimetry.
(§2) A unit (1 unit, 1 U) of enzyme activity is defined as the activity of enzyme which generates 1μ mole of hydrogen peroxide per minute.

[2] = test system: acyl-CoA oxidase of Cladosporium resinae IFO 6367; format: biochemical; conditions: substrate of the assay method: palmitoyl-CoA; 37° C.; phosphate buffer pH 7.0 or tris-HCl buffer pH 8.0
Experimental: as §1, §2

[3] = test system: acyl-CoA oxidase of Macrophomina phaseoli ATCC 14383; format: biochemical; conditions: substrate of the assay method: palmitoyl-CoA; 37° C.; phosphate buffer pH 7.0 or tris-HCl buffer pH 8.0
Experimental: as §1, §2

[4] = test system: acyl-CoA oxidase of Aspergillus candidus M-4815; format: biochemical; conditions: substrate of the assay method: palmitoyl-CoA; 37° C.; phosphate buffer pH 7.0 or tris-HCl buffer pH 8.0
Experimental: as §1, §2

[5] = test system: acyl-CoA oxidase of Arthrobacter sp. B-0720; format: biochemical; conditions: substrate of the assay method: palmitoyl-CoA; 37° C.; phosphate buffer pH 7.0 or tris-HCl buffer pH 8.0
Experimental: as §1, §2

[6] = substrate: CCCCCCCCCCCCCCCC(=O)SCCNC(=O)CCNC(=O)[C@H](O)C(C)(C)COP(=O)(O)OP(=O)(O)OC[C@H]1O[C@@H](n2cnc3c(N)ncnc32)[C@H](O)[C@@H]1OP(=O)(O)O; format: biochemical, Saccharomyces cerevisiae; conditions: other: substrate of the assay method: palmitoyl-CoA, 37° C., phosphate buffer pH 7.0 or tris-HCl buffer pH 8.0
Experimental: as §1, §2

Molecule	Km [1]	Km [2]	Km [3]	Km [4]	Km [5]	Km [6]
CCCCCCCCCCCCCCCC(=O)SCCNC(=O)CCNC(=O)[C@H](O)C(C)(C)COP(=O)(O)OP(=O)(O)OC[C@H]1O[C@@H](n2cnc3c(N)ncnc32)[C@H](O)[C@@H]1OP(=O)(O)O [palmitoyl-CoA]	150 µM	120 µM	87 µM	110 µM	130 µM	
acyl-CoA oxidase of Saccharomyces cerevisiae (strain Y 0036) (Saccharomyces cerevisiae S288C) (protein, endogenous in cells; host or cells: Saccharomyces cerevisiae Y 0036 (FERM-P No. 5174; enzyme of the producing strain itself)) MTRRTTINPDSVVLNPQKFIQKERADSKIKVDQVNTFLESSPERRTLTHALIDQIVNDPILKTDTDYYDAKKMQEREITAKKIARLASYMEHDIKTVRKHFRDTDLMKELQANDPDKASPLTNKDLFIFDKRLSLVANIDPQLGTRVGVHLGLFGNCIKGNGTDEQIRYWLQERGATLMKGIYGCFAMTELGHGSNVAQLQTRAVYDKQNDTFVIDTPDLTATKWWIGGAAHSATHAAVYARLIVEGKDYGVKTFVVPLRDPSTFQLLAGVSIGDIGAKMGRDGIDNGWIQFRNVVIPREFMLSRFTKVVRSPDGSVTVKTEPQLDQISGYSALLSGRVNMVMDSFRFGSKFATIAVRYAVGRQQFAPRKGLSETQLIDYPLHQYRVLPQLCVPYLVSPVAFKLMDNYYSTLDELYNASSSAYKAALVTVSKKLKNLFIDSASLKATNTWLIATLIDELRQTCGGHGYSQYNGFGKGYDDWVVQCTWEGDNNVLSLTSAKSILKKFIDSATKGRFDNTLDVDSFSYLKPQYIGSVVSGEIKSGLKELGDYTEIWSITLIKLLAHIGTLVEKSRSIDSVSKLLVLVSKFHALRCMLKTYYDKLNSRDSHISDEITKESMWNVYKLFSLYFIDKHSGEFQQFKIFTPDQISKVVQPQLLALLPIVRKDCIGLTDSFELPDAMLNSPIGYFDGDIYHNYFNEVCRNNPVEADGAGKPSYHALLSSMLGRGFEFDQKLGGAANAEILSKINK						500 µM
